Measured values as given in US12043600B2, “Microbiocidal compounds” (SYNGENTA CROP PROTECTION AG, priority 2018, dated 2024).

Legend:
[1] = system: Glomerella lagenarium (Colletotrichum lagenarium); assay: Glomerella lagenarium (Colletotrichum lagenarium)/Liquid Culture (Anthracnose); format: cell-based; conditions: Colletotrichum orbiculare, liquid culture, compared to untreated control
[2] = system: Blumeria graminis f. sp. tritici (Erysiphe graminis f. sp. tritici); assay: Blumeria graminis f. sp. tritici/Wheat/Leaf Disc Preventative (Powdery Mildew on Wheat); format: in vivo; conditions: foliar, wheat leaf disc preventative, compared to untreated control
Summary of the method: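 Wheat cv. Kanzler leaf segments on agar sprayed with formulated compound, inoculated with powdery mildew 1 day later and held at 20° C, 60% rh (24 h dark, then 12 h light/12 h dark). Percent disease control versus untreated scored 6-8 days after application.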

[3] = system: Monographella nivalis (Microdochium nivale); assay: Monographella nivalis (Microdochium nivale)/Liquid Culture (Foot Rot Cereals); format: cell-based; conditions: liquid culture, compared to untreated control
Summary of the method: (§1)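 First, the test compound in DMSO is placed in the wells. Next, potato dextrose broth seeded with conidia taken straight from cryogenic storage is added, and the culture is left to grow.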

[4] = system: Mycosphaerella arachidis (Cercospora arachidicola); assay: Mycosphaerella arachidis (Cercospora arachidicola)/Liquid Culture (Early Leaf Spot); format: cell-based; conditions: liquid culture, compared to untreated control
Summary of the method: as §1

Phytophthora infestans = assay: whole plant or invertebrate; format: in vivo; conditions: in Solanum lycopersicum, foliar, read-out: control of Phytophthora infestans
Plasmopara viticola = assay: whole plant or invertebrate; format: in vivo; conditions: foliar, read-out: control of Plasmopara viticola
[5] = system: Puccinia recondita f. sp. tritici; assay: Puccinia recondita f. sp. tritici/Wheat/Leaf Disc Curative (Brown Rust); format: in vivo; conditions: foliar, wheat leaf disc curative, compared to untreated control
Summary of the method: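 Curative leaf-disc test on wheat cv. Kanzler segments on agar, spore-inoculated and kept dark at 19° C, 75% rh; formulated compound in water applied 1 day after inoculation. Incubated at 19° C, 75% rh, 12 h light/12 h dark; percent disease control versus untreated scored 6-8 days after application.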

[6] = system: Puccinia recondita f. sp. tritici; assay: Puccinia recondita f. sp. tritici/Wheat/Leaf Disc Preventative (Brown Rust); format: in vivo; conditions: foliar, 200 ppm, wheat leaf disc preventative, compared to untreated control, read-out: control of Puccinia recondita f. sp. tritici
[7] = system: Magnaporthe grisea (Pyricularia oryzae); assay: whole plant or invertebrate; format: in vivo; conditions: foliar, read-out: control of Magnaporthe grisea
Sclerotinia sclerotiorum = assay: Sclerotinia sclerotiorum/Liquid Culture (Cottony Rot); format: cell-based; conditions: liquid culture, compared to untreated control
Description: Mycelia fragments of a newly grown liquid culture of the fungus are directly mixed into nutrient broth (PDB potato dextrose broth). After placing a (DMSO) solution of test compound into a microtiter plate (96-well format) the nutrient broth containing the fungal material is added.

[8] = system: Mycosphaerella graminicola (Septoria tritici); assay: Mycosphaerella graminicola (Septoria tritici)/Liquid Culture (Septoria Blotch); format: cell-based; conditions: Zymoseptoria tritici; 20 ppm; liquid culture; compared to untreated control
Summary of the method: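 Conidia from cryogenic storage mixed into potato dextrose broth and added to microtiter wells already holding DMSO solutions of test compound. Activity expressed as percentage disease control.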

[9] = system: Phaeosphaeria nodorum (Septoria nodorum); assay: Phaeosphaeria nodorum (Septoria nodorum)/Wheat/Leaf Disc Preventative (Glume Blotch); format: in vivo; conditions: Parastagonospora nodorum, foliar, wheat leaf disc preventative, compared to untreated control
Summary of the method: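 Wheat cv. Kanzler leaf discs on agar were sprayed with formulated compound diluted in water and inoculated with P. nodorum spores 2 days later. Discs kept at 20 °C, 75% rh, 12 h light/dark; percent disease control versus untreated scored 5–7 days after application.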

[10] = system: Botryotinia fuckeliana (Botrytis cinerea); assay: Botryotinia fuckeliana (Botrytis cinerea)/Liquid Culture (Gray Mould); format: cell-based; conditions: liquid culture, compared to untreated control
Description: Conidia of the fungus from cryogenic storage are directly mixed into nutrient broth (Vogels broth). After placing a (DMSO) solution of test compound into a microtiter plate (96-well format), the nutrient broth containing the fungal spores is added.

Phakopsora pachyrhizi = assay: Phakopsora pachyrhizi/Soybean/Preventative (Soybean Rust); format: in vivo; conditions: 288 h, Phakopsora pachyrhizi (Soybean rust)
[11] = system: Thanatephorus cucumeris (Rhizoctonia solani); assay: Thanatephorus cucumeris (Rhizoctonia solani)/Liquid Culture (Foot Rot, Damping-Off); format: cell-based; conditions: liquid culture, compared to untreated control
Description: Mycelia fragments of a newly grown liquid culture of the fungus are directly mixed into nutrient broth (PDB potato dextrose broth). After placing a (DMSO) solution of the test compounds into a microtiter plate (96-well format), the nutrient broth containing the fungal material is added.

[12] = Photostability assay (Atlas Suntest); format: physicochemical; conditions: Suntest 750 W/m^2, spotted on microscope slides
Description: The testing method to measure the photostability data of each compound in table is D1 is as specifically described below. The objective of the photostability assay was to determine the stability of the individual test compounds in a strictly controlled and reproducible environment allowing a comparison of their photostability.
Method: Compounds were dissolved in methanol (HPLC grade) to give 1 g/L stock solutions. Compound stock solution (2 μl) was spotted onto microscope slides in a 3D printed holder and put into the Atlas Suntest. The spectral output power of the Suntest was set to 750 W/m^2, which is considered typical of the daily maximum (noon) irradiance level on a very bright British Summer day. At specific time points slides were removed from the Suntest and placed in 4D vials. Wash solvent made up of 50:40:10 H2O:MeCN:THF (1 mL) is then added to the vials and whirlimixed. The resulting solution is then subsampled to an HPLC vial to be analysed. A Waters UPLC system with Photodiode Array was used with a Waters reverse phase column (BEH C18, 100×2.1 mm×1.7 μm) and acetonitrile (HPLC grade) acidified water (0.2% formic acid) mobile phase at a flow rate of 0.6 mL/min. Peak detection was at the optimum wavelength and peak areas were used for quantification
Initial and subsequent measurements of peak area attributable to the test compound were used to provide a % parent remaining at 3 hours.

Pyrenophora teres = assay: Pyrenophora teres/Barley/Leaf Disc Preventative (Net Blotch); format: in vivo; conditions: foliar, 200 ppm, barley leaf disc preventative, compared to untreated control, read-out: control of Pyrenophora teres
Summary of the method: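 Formulated compound, diluted in water, sprayed onto barley cv. Hasso leaf segments on agar; spore suspension inoculation followed 2 days after application. Results expressed as percentage disease control.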

CO/C=C(\Oc1cc(-n2ccc(C3CCC3)n2)c(F)cc1C)C(=O)OC [Compound E-18, methyl (Z)-2-[5-(3-cyclobutylpyrazol-1-yl)-4-fluoro-2-methyl-phenoxy]-3-methoxy-prop-2-enoate]
≥ 80%: inhibition of growth at 20 ppm [1] | pest or weed control at 200 ppm [2] | inhibition of growth at 20 ppm [3] | inhibition of growth at 20 ppm [4] | pest or weed control at 200 ppm (Phytophthora infestans) | pest or weed control at 200 ppm (Plasmopara viticola) | pest or weed control at 200 ppm [5] | pest or weed control at 200 ppm [6] | pest or weed control at 200 ppm [7] | inhibition of growth at 20 ppm (Sclerotinia sclerotiorum) | inhibition of growth at 20 ppm [8]

CO/C=C(\Oc1cc(-n2ccc(C(F)(F)F)n2)cc(C)c1C)C(=O)OC [Compound E-19, methyl (Z)-2-[2,3-dimethyl-5-[3-(trifluoromethyl)pyrazol-1-yl]phenoxy]-3-methoxy-prop-2-enoate]
144 to 146 °C: melting point
≥ 80%: inhibition of growth at 20 ppm [1] | pest or weed control at 200 ppm [2] | pest or weed control at 200 ppm [9] | inhibition of growth at 20 ppm [3] | inhibition of growth at 20 ppm [4] | pest or weed control at 200 ppm (Phytophthora infestans) | pest or weed control at 200 ppm (Plasmopara viticola) | pest or weed control at 200 ppm [6] | pest or weed control at 200 ppm [7] | inhibition of growth at 20 ppm (Sclerotinia sclerotiorum) | inhibition of growth at 20 ppm [8]

CCCc1ccn(-c2ccc(C)c(O/C(=C\OC)C(=O)OC)c2)n1 [Compound E-40, methyl (Z)-3-methoxy-2-[2-methyl-5-(3-propylpyrazol-1-yl)phenoxy]prop-2-enoate]
65%: % Parent Remaining @ 3 hrs [12]
100%: pest or weed control at 60 ppm (Phakopsora pachyrhizi; 60 ppm) | pest or weed control at 200 ppm (Phakopsora pachyrhizi; 200 ppm, read-out: control (%))
90%: pest or weed control at 6 ppm (Phakopsora pachyrhizi; 6 ppm)
91 to 94 °C: melting point
10%: pest or weed control at 0.6 ppm (Phakopsora pachyrhizi; 0.6 ppm)
35%: pest or weed control at 2 ppm (Phakopsora pachyrhizi; 2 ppm)
95%: pest or weed control at 20 ppm (Phakopsora pachyrhizi; 20 ppm)
≥ 80%: inhibition of growth at 20 ppm [10] | inhibition of growth at 20 ppm [1] | pest or weed control at 200 ppm [2] | pest or weed control at 200 ppm [9] | inhibition of growth at 20 ppm [3] | inhibition of growth at 20 ppm [4] | pest or weed control at 200 ppm (Phytophthora infestans) | pest or weed control at 200 ppm (Plasmopara viticola) | pest or weed control at 200 ppm [7] | inhibition of growth at 20 ppm [11] | inhibition of growth at 20 ppm [8]

CO/C=C(\Oc1cc(-n2ccc(C(F)(F)F)n2)c(F)cc1C)C(=O)OC [Compound E-42, methyl (Z)-2-[4-fluoro-2-methyl-5-[3-(trifluoromethyl)pyrazol-1-yl]phenoxy]-3-methoxy-prop-2-enoate]
104 to 108 °C: melting point
24%: % Parent Remaining @ 3 hrs [12]
≥ 80%: inhibition of growth at 20 ppm [10] | inhibition of growth at 20 ppm [1] | pest or weed control at 200 ppm [2] | pest or weed control at 200 ppm [9] | inhibition of growth at 20 ppm [3] | inhibition of growth at 20 ppm [4] | pest or weed control at 200 ppm (Plasmopara viticola) | pest or weed control at 200 ppm [5] | pest or weed control at 200 ppm [6] | pest or weed control at 200 ppm [7] | pest or weed control at 200 ppm (Pyrenophora teres) | inhibition of growth at 20 ppm [11] | inhibition of growth at 20 ppm [8]

CCC(C)c1ccn(-c2ccc(C)c(O/C(=C\OC)C(=O)OC)c2)n1 (stereo not drawn) [Compound E-44, methyl (Z)-3-methoxy-2-[2-methyl-5-(3-sec-butylpyrazol-1-yl)phenoxy]prop-2-enoate]
110 to 113 °C: melting point
69%: % Parent Remaining @ 3 hrs [12]
≥ 80%: inhibition of growth at 20 ppm [10] | inhibition of growth at 20 ppm [1] | pest or weed control at 200 ppm [2] | pest or weed control at 200 ppm [9] | inhibition of growth at 20 ppm [3] | inhibition of growth at 20 ppm [4] | pest or weed control at 200 ppm (Phytophthora infestans) | pest or weed control at 200 ppm (Plasmopara viticola) | pest or weed control at 200 ppm [7] | pest or weed control at 200 ppm (Pyrenophora teres) | inhibition of growth at 20 ppm [11] | inhibition of growth at 20 ppm [8]

CO/C=C(\Oc1cc(-n2ccc(C3CC3)n2)ccc1C)C(=O)OC [Compound E-101, methyl (Z)-2-[5-(3-cyclopropylpyrazol-1-yl)-2-methyl-phenoxy]-3-methoxy-prop-2-enoate]
115 to 118 °C: melting point
≥ 80%: inhibition of growth at 20 ppm [10] | inhibition of growth at 20 ppm [1] | pest or weed control at 200 ppm [2] | pest or weed control at 200 ppm [9] | inhibition of growth at 20 ppm [3] | inhibition of growth at 20 ppm [4] | pest or weed control at 200 ppm (Phytophthora infestans) | pest or weed control at 200 ppm (Plasmopara viticola) | inhibition of growth at 20 ppm [11] | inhibition of growth at 20 ppm [8]
38%: % Parent Remaining @ 3 hrs [12]

CO/C=C(\Oc1cc(-n2cc(Br)c(C)n2)ccc1C)C(=O)OC [Compound E-117, methyl (Z)-2-[5-(4-bromo-3-methyl-pyrazol-1-yl)-2-methyl-phenoxy]-3-methoxy-prop-2-enoate]
≥ 80%: inhibition of growth at 20 ppm [1] | pest or weed control at 200 ppm [2] | inhibition of growth at 20 ppm [3] | inhibition of growth at 20 ppm [4] | pest or weed control at 200 ppm (Plasmopara viticola) | pest or weed control at 200 ppm [5] | pest or weed control at 200 ppm [6] | inhibition of growth at 20 ppm (Sclerotinia sclerotiorum) | inhibition of growth at 20 ppm [8]
120 to 122 °C: melting point
